Measurements published in paper PMC9586938, “Picomolar fluorescent probes for compound affinity determination to carbonic anhydrase IX expressed in live cancer cells” (Scientific Reports, 2022).

What was measured:
Format in all cases: binding
CAVII = target: T1, CAVII (Homo sapiens, UniProt P43166); experiment: Thermal shift assay (TSA), recombinant CAVII; details: 37 °C, pH 7.0, observed (not intrinsic)
T1 construct: made in house; host or cells: E. coli

CAXIV = target: T2, CAXIV (Homo sapiens, UniProt Q9ULX7); experiment: Thermal shift assay (TSA), recombinant CAXIV; details: 37 °C, pH 7.0, observed (not intrinsic)
T2 construct: Isozymes CAIX, CAXII, and CAXIV were the catalytic domains of the proteins; made in house; host or cells: E. coli

recombinant human CAIX = target: T3, recombinant human CAIX (Homo sapiens, UniProt Q16790); experiment: Isothermal titration calorimetry (ITC) with recombinant CAIX
T3 construct: Isozymes CAIX, CAXII, and CAXIV were the catalytic domains of the proteins; made in house; host or cells: mammalian cells
Procedure: (§1) The binding affinities of all fluorescein-containing compounds were determined for all 12 catalytically active CA isozymes by the thermal shift assay (TSA). […] However, the SFA technique cannot determine the affinities lower than the enzyme concentration used in the assay. […] In addition, we used isothermal titration calorimetry (ITC), the standard assay to determine affinity and enthalpy of protein–ligand binding. […] Therefore, ITC was used only to determine the enthalpy of interaction and confirm the ordering of compound affinities.
Affinities of several selected compounds to several human CA isozymes have been determined by ITC as described previously[43],[44]. The protein solution was placed in the cell of iTC200 titration calorimeter while the compound solution in identical buffer was placed in the syringe. After thermal equilibration, the compound solution was injected into the cell by identical injections. The heat produced during the reaction was measured by the calorimeter providing the shape of the curve that in turn yielded the enthalpy and the affinity Kd of the interaction.
Picomolar Fluorescent Probes for Compound Affinity Determination to Carbonic Anhydrase IX Expressed in Live Cancer Cells
Figure S1. […] The binding affinity of GZ19-32 was too high to be accurately measured by ITC due to the limitation related to the Wiseman parameter C. […]

CAXIII = target: T4, CAXIII (Homo sapiens, UniProt Q8N1Q1); experiment: Thermal shift assay (TSA), recombinant CAXIII; details: 37 °C, pH 7.0, observed (not intrinsic)
T4 construct: made in house; host or cells: E. coli

CAVI = target: T5, CAVI (Homo sapiens, UniProt P23280); experiment: Thermal shift assay (TSA), recombinant CAVI; details: 37 °C, pH 7.0, observed (not intrinsic)
T5 construct: made in house; host or cells: E. coli
Procedure: as §1
(§2) All twelve catalytically active human CA isozymes were prepared recombinantly as previously described. Isozymes CAIX, CAXII, and CAXIV were the catalytic domains of the proteins[14],[38]. All isozymes were expressed in E. coli except CAIX that has been prepared in mammalian cells. The proteins were chromatographically purified on ion-exchange or benzene sulfonamide containing affinity columns. Protein MW was confirmed by mass spectrometry with 1 Da precision as predicted from gene sequence.
(§3) Compound affinities for the twelve catalytically active CA isozymes were determined by the thermal shift assay as previously described[30],[39]. Protein solutions containing 1,8-anilinonaphthalenesulfonate fluorescent probe were heated from 25 to 100 °C at a rate of one degree per minute while following the fluorescence of the probe. The temperature scanning curves provided the melting temperature Tm of the protein. The Tm has a distinct dependence on the concentration of a compound. Stronger binders shift the Tm to a greater extent than the weak binders. The Tm dependencies on compound concentration were fit to obtain the affinity Kd[40].

CAIV = target: T6, CAIV (Homo sapiens, UniProt P22748); experiment: Thermal shift assay (TSA), recombinant CAIV; details: 37 °C, pH 7.0, observed (not intrinsic)
T6 construct: made in house; host or cells: E. coli

[1] = target: T7, catalytic domain of recombinant human CAIX (Homo sapiens, UniProt Q16790); experiment: Thermal shift assay (TSA), recombinant CAIX catalytic domain; details: for Kd: TSA, 37 °C, pH 7.0, observed (not intrinsic), read-out: Kd CAIX; for binding to CAIX by TSA (in words): recombinant CAIX
T7 construct: Isozymes CAIX, CAXII, and CAXIV were the catalytic domains of the proteins; made in house; host or cells: mammalian cells

CAIII = target: T8, CAIII (Homo sapiens, UniProt P07451); experiment: Thermal shift assay (TSA), recombinant CAIII; details: 37 °C, pH 7.0, observed (not intrinsic)
T8 construct: made in house; host or cells: E. coli
Procedure: as §1, §2, §3

T8 sequence (P07451 whole entry): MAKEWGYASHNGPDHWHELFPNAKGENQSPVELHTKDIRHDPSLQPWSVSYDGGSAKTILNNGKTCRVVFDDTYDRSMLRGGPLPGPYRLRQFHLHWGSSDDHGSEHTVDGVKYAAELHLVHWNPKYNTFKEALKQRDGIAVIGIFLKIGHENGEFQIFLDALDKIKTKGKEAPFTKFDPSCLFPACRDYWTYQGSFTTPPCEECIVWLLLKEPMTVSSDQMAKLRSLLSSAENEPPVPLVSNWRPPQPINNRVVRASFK
T2 sequence (Q9ULX7 20-278 limits assumed): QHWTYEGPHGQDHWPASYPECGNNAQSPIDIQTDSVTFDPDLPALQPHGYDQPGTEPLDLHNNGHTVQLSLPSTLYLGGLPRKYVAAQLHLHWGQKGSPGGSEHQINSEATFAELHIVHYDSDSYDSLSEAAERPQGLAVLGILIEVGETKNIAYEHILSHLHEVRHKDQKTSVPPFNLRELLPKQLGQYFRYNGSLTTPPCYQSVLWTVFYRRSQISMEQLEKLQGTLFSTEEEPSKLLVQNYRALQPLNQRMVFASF
T4 sequence (Q8N1Q1 whole entry): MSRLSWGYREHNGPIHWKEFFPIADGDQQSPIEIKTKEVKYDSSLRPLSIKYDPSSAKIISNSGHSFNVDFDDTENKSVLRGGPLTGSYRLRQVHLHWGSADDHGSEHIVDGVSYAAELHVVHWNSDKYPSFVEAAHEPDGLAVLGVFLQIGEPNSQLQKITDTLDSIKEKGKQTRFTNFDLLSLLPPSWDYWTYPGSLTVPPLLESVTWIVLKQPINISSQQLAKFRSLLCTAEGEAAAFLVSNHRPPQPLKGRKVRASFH
T5 sequence (P23280 18-308): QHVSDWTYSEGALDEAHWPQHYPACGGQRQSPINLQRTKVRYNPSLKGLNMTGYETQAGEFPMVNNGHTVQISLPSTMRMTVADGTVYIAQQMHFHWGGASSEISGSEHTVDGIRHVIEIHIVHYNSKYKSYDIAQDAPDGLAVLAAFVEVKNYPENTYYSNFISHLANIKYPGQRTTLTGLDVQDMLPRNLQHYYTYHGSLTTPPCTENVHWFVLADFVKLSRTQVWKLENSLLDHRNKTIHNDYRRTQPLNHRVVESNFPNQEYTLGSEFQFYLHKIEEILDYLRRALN
T1 sequence (P43166 whole entry): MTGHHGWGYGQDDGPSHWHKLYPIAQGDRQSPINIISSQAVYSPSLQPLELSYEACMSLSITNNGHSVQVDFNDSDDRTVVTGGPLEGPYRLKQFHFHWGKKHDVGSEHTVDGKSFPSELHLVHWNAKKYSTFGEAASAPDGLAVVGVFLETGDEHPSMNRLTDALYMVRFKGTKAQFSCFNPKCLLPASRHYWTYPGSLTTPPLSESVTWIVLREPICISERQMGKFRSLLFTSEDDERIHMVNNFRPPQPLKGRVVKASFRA
T6 sequence (P22748 19-312): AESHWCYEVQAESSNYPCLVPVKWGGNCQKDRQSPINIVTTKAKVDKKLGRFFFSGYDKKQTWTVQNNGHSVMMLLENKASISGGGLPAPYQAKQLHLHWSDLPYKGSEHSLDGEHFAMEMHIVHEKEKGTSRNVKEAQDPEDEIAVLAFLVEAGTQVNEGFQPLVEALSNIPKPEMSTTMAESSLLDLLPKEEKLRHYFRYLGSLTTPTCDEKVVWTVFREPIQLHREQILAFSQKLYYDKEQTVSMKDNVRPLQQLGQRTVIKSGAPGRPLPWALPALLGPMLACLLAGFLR

Compound	Kd (CAVII) [nM]	Kd (CAXIV) [nM]	binding to CAIX by ITC (in words) (recombinant human CAIX)	Kd (CAXIII) [nM]	Kd (CAVI) [nM]	Kd (CAIV) [nM]	Kd [1] [nM]	binding to CAIX by TSA (in words) [1]	Kd (CAIII) [nM]
3-((2-(cyclooctylamino)-3,5,6-trifluoro-4-(methylsulfonyl)phenyl)sulfonyl)-N-(3',6'-dihydroxy-3-oxo-3H-spiro[isobenzofuran-1,9'-xanthen]-5-yl)propanamide and 3-((3-(cyclooctylamino)-2,5,6-trifluoro-4-(methylsulfonyl)phenyl)sulfonyl)-N-(3',6'-dihydroxy-3-oxo-3H-spiro[isobenzofuran-1,9'-xanthen]-5-yl)propanamide [GZ20-37]	> 100000	> 100000	did not show binding	> 100000	> 100000	> 100000	> 100000	did not show binding	> 100000
NS(=O)(=O)c1c(F)c(F)c(S(=O)(=O)CCC(=O)Nc2ccc3c(c2)C(=O)OC32c3ccc(O)cc3Oc3cc(O)ccc32)c(NC2CCCCCCC2)c1F [GZ19-32, 3-((2-(cyclooctylamino)-3,5,6-trifluoro-4-sulfamoylphenyl)sulfonyl)-N-(3',6'-dihydroxy-3-oxo-3H-spiro[isobenzofuran-1,9'-xanthen]-5-yl)propanamide]	5	3.3	too high to be accurately measured	0.67	330	100	0.005	high affinity for CAIX (pM range)	1670
